In brackets after ≈: the same amount, converted by molar mass. Like-named read-outs stand apart in the source and are kept apart here.
Key:
[1] = system: hyperphosphorylated three repeat tau protein; assay: Example 3: retinal fluorescent imaging of model mice after intravenous Compound 9; set-up: species or system mouse; conditions: Compound 9 intravenously, retinas imaged ex vivo, example in present tense
Experimental: Model mice having a detectable target protein, for example, an amyloid beta protein, or a phosphorylated tau protein, or an accumulated mass thereof, are administered Compound 9 intravenously. Retinas of the mice are removed and are mounted on slides. The retinas are washed with PBS 2 times for 5 minutes. A solution of 98% formic acid is added—5 minutes for antigen retrieval. The sampled are washed with distilled water—2 times for 5 minutes. The samples are equilibrated in 1×PBS for 15 minutes, then blocked with 10% goat/donkey serum in 1× PB ST (depending on antibodies) for 1 hour. Samples are covered in foil, and washed with 1× PBS 3 times for 5 minutes each. Samples are stained with DAPI (300 nM or 100 ng/mL) in dark for 10 minutes, then tissues are washed 3×10 minutes with PBS. Antifade DAKO mounting medium is added, and coverslip and kept under foil until imaging.
Fluorescent imaging study of the samples is conducted on a Leica DMI 4000B microscope (Leica, Germany) equipped with a TCS SPE camera and Leica 10, 20 and 40× objectives. The following lasers are used to visualize fluorescent probes pertaining to DAPI (blue, nuclear stain), Compound 7 (green) and hyperphosphorylated tau (red): 408, 488 and 568 nm. Z-stacked images are taken at 40× at 0.5 μm increments to visualize the entire thickness of the tissue.

[2] = Solubility of Compound 9 / phosphate prodrugs; type: physicochemical; conditions: aqueous buffer; phosphate buffer at pH 7.4
Text: Due to the poor water solubility and the large particle size of compounds such as Compound 7, prodrug derivatives of these compounds were investigated.

[3] = Rabbit pharmacokinetics of Compound 9, Study 1 (retina, brain, blood); type: in vivo; conditions: other: injection (site not specified), Study 1, 30 mg Compound 9 injected
Experimental: (§1) Compound 9 was injected into rabbits as a solution in 0.1 M phosphate buffer, pH 7.4 such that rabbits received either 30 mg of Compound 9 (Study 1) or 28 mg of Compound 9 (Study 2). The purpose of these studies was to confirm that Compound 9 could easily be converted into Compound 7 in vivo.
Study 1: Rabbits received a 1.5 mL injection of a 20 mg/mL solution of Compound 9 in 0.1 M phosphate buffer, pH 7.4. Rabbits were sacrificed at the specified time points (N=3 per time point) in the tables below and the average concentration of Compound 9 and Compound 7 was determined in the retina (Table 3), brain (Table 4) and blood (Table 5).

[4] = Rabbit pharmacokinetics of Compound 9, Study 2 (retina, brain, blood/plasma); type: in vivo
Experimental: as §1
Study 2: The purpose of this study was to determine if higher concentrations of Compound 9 and/or Compound 7 was present at earlier time points in the tissues specified. Rabbits received a 1.4 mL injection of a 20 mg/mL solution of Compound 9 in 0.1 M phosphate buffer, pH 7.4. Blood was collected from rabbits (N=6) two minutes after receiving Compound 9 to determine the blood concentration at this time point (Table 8). Rabbits were then sacrificed at the specified time points (N=3 per time point) in the tables below and the average concentrations of Compound 9 and Compound 7 were determined in the retina (Table 6), brain (Table 7) and blood (Table 8).

Aβ = assay: Example 4: detection of Aβ in the retina of a TBI (blast) mouse model; type: in vivo; conditions: blast model mice 24 hours after injury, Compound 9 intravenously; example in present tense
Experimental: This example is conducted to determine whether Compound 9 detects Aβ in the retina of a TBI mouse model.
Blast model mice 24 hours after injury and a non-injured mouse are administered Compound 9 intravenously. Mice retinas are scanned by scanning laser ophthalmoscopy (SLO).
Alternatively, or in addition to retinal scanning, retinal tissues are removed and stained with an anti-Aβ antibody (6E10).

Q: With `N#C/C(=C\c1ccc2cc(N3CCCCC3)ccc2c1)C(=O)NCCOCCOCCOP(=O)(O)O` [Compound 9] as the compound, how does the “Detection of hyperphosphorylated three repeat tau protein in the retina” value [1] read?
A: detected in the retina, producing a detectable fluorescent signal

Q: What about the solubility [2] of the same compound?
A: 20 to 30 mg/mL (≈ 38.6 to 58 mM)

Q: What about the concentration at 15 min ([3]; blood, read-out: Avg Conc., blood) of the same compound?
A: 5440 ± 767 ng/mL

Q: What about the concentration at 30 min ([3]; blood, 30 min, read-out: Avg Conc., blood) of the same compound?
A: 374 ± 301 ng/mL

Q: And the concentration at 60 min ([3]; blood, 60 min, read-out: Avg Conc., blood)?
A: 24.9 ± 31.8 ng/mL

Q: What about the concentration at 15 min ([3]; brain, read-out: Avg Conc., brain) of the same compound?
A: 0.439 ng/g

Q: What about the concentration at 5 min ([4]; brain, other: injection (site or type of injection not stated), rabbit, Study 2, 28 mg Compound 9 injected, 5 min, read-out: Avg Conc., brain) of the same compound?
A: 7.2 ± 2.62 ng/g

Q: And the concentration at 10 min ([4]; brain, other: injection (site or type of injection not stated), rabbit, Study 2, 28 mg Compound 9 injected, read-out: Avg Conc., brain)?
A: 2.23 ± 0.426 ng/g

Q: And the Kp ([4]; brain, rabbit, after injection of Compound 9)?
A: < 0.001

Q: What about the “Conversion of Compound 9 to Compound 7 in vivo” value ([4]; healthy rabbit model) of the same compound?
A: rapidly converted to Compound 7

Q: What about the concentration at 2 min ([4]; plasma, other: injection (site not specified), rabbit, Study 2, 28 mg Compound 9 injected, 2 min, read-out: Avg Conc., plasma) of the same compound?
A: 67600 ± 18800 ng/mL

Q: What about the concentration at 5 min ([4]; plasma, other: injection (site not specified), rabbit, Study 2, 28 mg Compound 9 injected, 5 min, read-out: Avg Conc., plasma) of the same compound?
A: 40000 ± 11800 ng/mL

Q: What about the concentration at 10 min ([4]; plasma, other: injection (site not specified), rabbit, Study 2, 28 mg Compound 9 injected, read-out: Avg Conc., plasma) of the same compound?
A: 8860 ± 1310 ng/mL

Q: And the “Avg Conc., retina” value ([4]; rabbit, Study 2, 28 mg Compound 9 injected, 5 min)?
A: remained undetectable

Q: What about the Adverse reactions ([4]; rabbits, during the time course of the study) of the same compound?
A: no adverse reactions were noted

Q: What about the “Scanning laser ophthalmoscopy image of retina” value (Aβ) of the same compound?
A: showing the presence of Aβ plaques

— US12708676B2, “Phosphate compounds for detecting neurological disorders” (Amydis, Inc., priority 2018, dated 2026)
